Measured values as given in the supplement of paper PMC10307832.

How the values were obtained:
Test in all cases: relative viability (nuclei count vs DMSO), 5 days (fraction); higher = more cells survive
NCI-H1915 = test system: NCI-H1915
In short: (§1)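 The day after seeding in 1536-well plates, lung cancer cell lines were treated by pin tool with a single drug, or with a fixed anchor-drug dose together with five library-drug doses (not always all listed) in √10 steps. After 5 days, a combined fix-and-stain solution (final 0.05% Triton X-100, 1% formaldehyde, 1 ug/ml Hoechst) was added. Nuclei counted on 4× images gave relative viability as treated counts over vehicle counts, reported as the median of duplicate plates.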

NCI-H661 = test system: NCI-H661
In short: as §1

NCI-H596 = test system: NCI-H596
In short: as §1

NCI-H727 = test system: NCI-H727
In short: as §1

LXF-289 = test system: LXF-289
In short: as §1

NCI-H3122 = test system: NCI-H3122
In short: as §1

NCI-H1792 = test system: NCI-H1792
In short: as §1

PC-14 = test system: PC-14
In short: as §1

NCI-H1651 = test system: NCI-H1651
In short: as §1

NCI-H520 = test system: NCI-H520
In short: as §1

NCI-H1355 = test system: NCI-H1355
In short: as §1

NCI-H322M = test system: NCI-H322M
In short: as §1

NCI-H460 = test system: NCI-H460
In short: as §1

NCI-H1563 = test system: NCI-H1563
In short: as §1

NCI-H2347 = test system: NCI-H2347
In short: as §1

RERF-LC-KJ = test system: RERF-LC-KJ
In short: as §1

NCI-H1755 = test system: NCI-H1755
In short: as §1

SK-MES-1 = test system: SK-MES-1
In short: as §1

Work on `CC(=O)O[C@@]12CO[C@@H]1C[C@H](O)[C@@]1(C)C(=O)[C@H](O)C3=C(C)[C@@H](OC(=O)[C@H](O)[C@@H](NC(=O)OC(C)(C)C)c4ccccc4)C[C@@](O)([C@@H](OC(=O)c4ccccc4)[C@H]21)C3(C)C` [Docetaxel] + CS(=O)(=O)CCNCc1ccc(-c2ccc3ncnc(Nc4ccc(OCc5cccc(F)c5)c(Cl)c4)c3c2)o1 [Lapatinib] (partner 2 µM) yielded a relative viability (NCI-H1915; first compound 0.0002 µM) of 0.937, a relative viability (NCI-H1915; first compound 0.000632 µM) of 0.665 and a relative viability (NCI-H1915; first compound 0.002 µM) of 0.351. For the same molecule, the relative viability (NCI-H1915; first compound 0.006325 µM) was 0.146, the relative viability (NCI-H1915; first compound 0.02 µM) was 0.118 and the relative viability (NCI-H661; first compound 0.0002 µM) was 0.495. For the same molecule, the relative viability (NCI-H661; first compound 0.000632 µM) was 0.516, the relative viability (NCI-H661; first compound 0.002 µM) was 0.4 and the relative viability (NCI-H661; first compound 0.006325 µM) was 0.369. It also gave a relative viability (NCI-H661; first compound 0.02 µM) of 0.245, a relative viability (NCI-H596; first compound 0.0002 µM) of 0.995 and a relative viability (NCI-H596; first compound 0.000632 µM) of 0.957. For the same molecule, the relative viability (NCI-H596; first compound 0.002 µM) was 0.844, the relative viability (NCI-H596; first compound 0.006325 µM) was 0.372 and the relative viability (NCI-H596; first compound 0.02 µM) was 0.35. For the same molecule, the relative viability (NCI-H727; first compound 0.0002 µM) was 0.854, the relative viability (NCI-H727; first compound 0.000632 µM) was 0.787 and the relative viability (NCI-H727; first compound 0.002 µM) was 0.371. For the same molecule, the relative viability (NCI-H727; first compound 0.006325 µM) was 0.26, the relative viability (LXF-289; first compound 0.0002 µM) was 0.926 and the relative viability (LXF-289; first compound 0.000632 µM) was 0.847. The relative viability (LXF-289; first compound 0.002 µM) was 0.393, the relative viability (LXF-289; first compound 0.006325 µM) was 0.137 and the relative viability (LXF-289; first compound 0.02 µM) was 0.109. It also gave a relative viability (NCI-H3122; first compound 0.0002 µM) of 0.979, a relative viability (NCI-H3122; first compound 0.000632 µM) of 0.977 and a relative viability (NCI-H3122; first compound 0.002 µM) of 0.942. It also gave a relative viability (NCI-H3122; first compound 0.006325 µM) of 0.296, a relative viability (NCI-H3122; first compound 0.02 µM) of 0.242 and a relative viability (NCI-H1792; first compound 0.0002 µM) of 0.741. For the same molecule, the relative viability (NCI-H1792; first compound 0.000632 µM) was 0.85, the relative viability (NCI-H1792; first compound 0.002 µM) was 0.522 and the relative viability (NCI-H1792; first compound 0.02 µM) was 0.0831. For the same molecule, the relative viability (PC-14; first compound 0.0002 µM) was 0.272, the relative viability (PC-14; first compound 0.000632 µM) was 0.417 and the relative viability (PC-14; first compound 0.002 µM) was 0.235. It also gave a relative viability (PC-14; first compound 0.006325 µM) of 0.0958, a relative viability (PC-14; first compound 0.02 µM) of 0.0629 and a relative viability (NCI-H1651; first compound 0.0002 µM) of 0.724. The relative viability (NCI-H1651; first compound 0.000632 µM) was 0.496, the relative viability (NCI-H1651; first compound 0.002 µM) was 0.161 and the relative viability (NCI-H1651; first compound 0.006325 µM) was 0.11. For the same molecule, the relative viability (NCI-H1651; first compound 0.02 µM) was 0.101, the relative viability (NCI-H520; first compound 0.0002 µM) was 0.856 and the relative viability (NCI-H520; first compound 0.000632 µM) was 0.684. The relative viability (NCI-H520; first compound 0.002 µM) was 0.246, the relative viability (NCI-H520; first compound 0.006325 µM) was 0.162 and the relative viability (NCI-H520; first compound 0.02 µM) was 0.12. For the same molecule, the relative viability (NCI-H1355; first compound 0.0002 µM) was 0.933, the relative viability (NCI-H1355; first compound 0.000632 µM) was 0.975 and the relative viability (NCI-H1355; first compound 0.002 µM) was 0.446. It also gave a relative viability (NCI-H1355; first compound 0.006325 µM) of 0.289, a relative viability (NCI-H1355; first compound 0.02 µM) of 0.21 and a relative viability (NCI-H322M; first compound 0.0002 µM) of 0.511. The relative viability (NCI-H322M; first compound 0.000632 µM) was 0.593, the relative viability (NCI-H322M; first compound 0.002 µM) was 0.497 and the relative viability (NCI-H322M; first compound 0.006325 µM) was 0.46. The relative viability (NCI-H322M; first compound 0.02 µM) was 0.293, the relative viability (NCI-H460; first compound 0.0002 µM) was 0.665 and the relative viability (NCI-H460; first compound 0.000632 µM) was 0.163. The relative viability (NCI-H460; first compound 0.002 µM) was 0.0209, the relative viability (NCI-H460; first compound 0.006325 µM) was 0.0147 and the relative viability (NCI-H460; first compound 0.02 µM) was 0.0097. The relative viability (NCI-H1563; first compound 0.0002 µM) was 0.969, the relative viability (NCI-H1563; first compound 0.000632 µM) was 1.01 and the relative viability (NCI-H1563; first compound 0.002 µM) was 0.971. It also gave a relative viability (NCI-H1563; first compound 0.006325 µM) of 0.747, a relative viability (NCI-H1563; first compound 0.02 µM) of 0.581 and a relative viability (NCI-H2347; first compound 0.0002 µM) of 1.01. It also gave a relative viability (NCI-H2347; first compound 0.000632 µM) of 1.05, a relative viability (NCI-H2347; first compound 0.002 µM) of 0.839 and a relative viability (NCI-H2347; first compound 0.006325 µM) of 0.512. The relative viability (NCI-H2347; first compound 0.02 µM) was 0.479, the relative viability (RERF-LC-KJ; first compound 0.0002 µM) was 0.808 and the relative viability (RERF-LC-KJ; first compound 0.000632 µM) was 0.841. The relative viability (RERF-LC-KJ; first compound 0.002 µM) was 0.498, the relative viability (RERF-LC-KJ; first compound 0.006325 µM) was 0.177 and the relative viability (RERF-LC-KJ; first compound 0.02 µM) was 0.198. The relative viability (NCI-H1755; first compound 0.0002 µM) was 0.99, the relative viability (NCI-H1755; first compound 0.000632 µM) was 0.756 and the relative viability (NCI-H1755; first compound 0.002 µM) was 0.495. For the same molecule, the relative viability (NCI-H1755; first compound 0.006325 µM) was 0.448, the relative viability (NCI-H1755; first compound 0.02 µM) was 0.258 and the relative viability (SK-MES-1; first compound 0.0002 µM) was 0.437. The relative viability (SK-MES-1; first compound 0.000632 µM) was 0.633, the relative viability (SK-MES-1; first compound 0.002 µM) was 0.378 and the relative viability (SK-MES-1; first compound 0.02 µM) was 0.159.
